Measured values from patent US11987648B2, “Cyclohexapeptides as selective somatostatin SST5 receptor agonists” (Heptares Therapeutics Limited, priority 2018, dated 2024).
*1 amine or outer side, *2 acyl side, *3 side chain or, on linkers, in order; H or OH if unused. Where a SMILES comes first, the peptide text is derived from it. Side-chain parts run from the residue outwards. [ ]: non-standard residue; d: D form. The star is where a group is joined. Ethylenediamine = C(CN[*:2])N[*:1]; Hyp = O=C(O)[C@@H]1C[C@@H](O)CN1; Phg = N[C@H](C(=O)O)c1ccccc1; CO = O=C([*:1])[*:2]; Bn = c1ccc(C*)cc1

Assays:
[1] = Phase I trial, pancreatic cancer, combination treatment with gemcitabine; cited from earlier work
SST5 = SST5 (Homo sapiens, UniProt P35346); assay: Hit Hunter cAMP XS+ assay, SST5 activation via Gi (reduction of forskolin-stimulated cAMP); type: cell-based; conditions: for SST5/2 Selectivity: selectivity for SST5 over SST2
Chain of SST5 (P35346 whole entry, the tested form may be a part): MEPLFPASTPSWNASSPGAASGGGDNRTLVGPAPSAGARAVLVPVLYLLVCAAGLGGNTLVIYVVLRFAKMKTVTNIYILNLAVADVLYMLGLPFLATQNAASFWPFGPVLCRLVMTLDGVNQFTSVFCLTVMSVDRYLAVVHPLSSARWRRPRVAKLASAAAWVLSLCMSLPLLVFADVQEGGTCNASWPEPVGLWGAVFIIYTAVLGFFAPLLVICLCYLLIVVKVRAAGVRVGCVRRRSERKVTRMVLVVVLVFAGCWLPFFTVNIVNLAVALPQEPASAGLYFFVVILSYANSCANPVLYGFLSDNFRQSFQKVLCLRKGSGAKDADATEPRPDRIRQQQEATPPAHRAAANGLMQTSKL
How it was run: (§1)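 Cells (10,000/well) incubated 30 min at 37 °C with compound under EC80 forskolin ([…] for SST2, 15 μM for SST5). cAMP reduction was detected by enzyme-fragment complementation chemiluminescence after 60 min and 180 min room-temperature reagent steps. Potency and efficacy were both measured.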

SST2 = SST2 (Homo sapiens, UniProt P30874); assay: Hit Hunter cAMP XS+ assay, SST2 activation via Gi (reduction of forskolin-stimulated cAMP); type: cell-based
Chain of SST2 (P30874 whole entry): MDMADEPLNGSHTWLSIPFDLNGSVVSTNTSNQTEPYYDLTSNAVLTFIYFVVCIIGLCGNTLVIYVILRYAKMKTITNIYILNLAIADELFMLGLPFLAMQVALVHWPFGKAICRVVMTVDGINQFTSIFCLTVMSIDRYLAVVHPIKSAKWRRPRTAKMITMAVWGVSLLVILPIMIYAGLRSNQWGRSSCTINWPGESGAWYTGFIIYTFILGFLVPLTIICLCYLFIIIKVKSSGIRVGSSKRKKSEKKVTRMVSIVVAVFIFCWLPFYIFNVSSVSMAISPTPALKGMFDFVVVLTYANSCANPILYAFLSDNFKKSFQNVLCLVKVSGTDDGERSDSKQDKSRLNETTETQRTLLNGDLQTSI
How it was run: as §1

[2] = Phase II trial, hepatocellular carcinoma; cited from earlier work
[3] = efficacy normalised to somatostatin 28 (basal 0%, 100% = signal with 50 nM somatostatin 28)

Row | Molecule | disease control rate [1] [%] | EC50 (SST5) [nM] | Emax (SST5; read-out: SST5 (EMax)) [%] | SST5/2 Selectivity (SST5) | EC50 (SST2) [nM] | Emax (SST2; read-out: SST2 (EMax)) [%] | patients with limitation of disease progression [2] [%] | SST5 (EMax) (SST5; [3]) [%] | SST2 (EMax) (SST2; [3]) [%]
1 | NCCCC[C@@H]1NC(=O)[C@@H](Cc2c[nH]c3ccccc23)NC(=O)[C@H](c2ccccc2)NC(=O)[C@@H]2C[C@@H](OC(=O)NCCN)CN2C(=O)[C@H](Cc2ccccc2)NC(=O)[C@H](Cc2ccc(OCc3ccccc3)cc2)NC1=O [pasireotide, reference compound] (cyclo([Hyp]([CO-Ethylenediamine])[Phg][dW]KY(Bn)F)) | 68 | 0.251 | 102 | 3.8 | 1 | 100 | 45 | – | –
2 | somatostatin 28 [reference compound] | – | – | – | 4.6 | – | – | – | 101.0 | 100.4
